The record followed here is paper PMC8086025, “A benzopyran with antiarrhythmic activity is an inhibitor of Kir3.1-containing potassium channels” (The Journal of Biological Chemistry, 2021).

“And” between values parts separate entries of the source, which are not always exact repeats. Equal entries are not always repeated. “Also recorded” adds a separate entry of the source.

The target of experiment [1] is T1, Neurokinin NK1 (Homo sapiens, UniProt P25103).
T1 construct: endogenous in cells; host or cells: U373MG uppsala
The experiment in a line: Radioligand binding, [125I]-Substance P LYS3, U373MG uppsala. As to conditions: read-out: % Specific Binding at 10 µM.

Experiment [2] relates to IKACh. Briefly: In vivo ECG, carbachol-induced heart rate slowing in anesthetized mice. How it is done: We tested the in vivo effects of BP-G1 versus those of BP-G1(SR) on heart rate in anesthetized adult mice (Fig. 8). ECG was continuously recorded. Panel A is the ECG showing that after carbachol (300 μl of 200 μM) was administered, i.p. (red mark), the heart decelerated, with a visible RR prolongation. About 10 min after carbachol injection, BP-G1 was delivered via the jugular vein (40 μl of 240 μM) (green mark). Within 5 min, there was a reversal of carbachol’s effects on the heart rate. Panel B is a control mouse showing heart rate slowing after carbachol administration (red mark).
Mice were anesthetized (1.5% isofluorane), and a 1.2 French octapolar catheter (Millar) with a drug delivery port was placed transvenously, through the jugular vein, into the right atrium. Continuous ECG was recorded using the Animal Bio Amp and PowerLab 4/35 Advanced Instruments apparatus. […] Saline control at the same volume was performed. Results are averages ±SD.

The subject of experiment [3] is Nav. Briefly: Radioligand binding, rat cerebral cortex.
The target in experiment [4] is T2, Kir3.1/2 channel (UniProt P48542+P48549).
T2 sequence (P48549 1-501): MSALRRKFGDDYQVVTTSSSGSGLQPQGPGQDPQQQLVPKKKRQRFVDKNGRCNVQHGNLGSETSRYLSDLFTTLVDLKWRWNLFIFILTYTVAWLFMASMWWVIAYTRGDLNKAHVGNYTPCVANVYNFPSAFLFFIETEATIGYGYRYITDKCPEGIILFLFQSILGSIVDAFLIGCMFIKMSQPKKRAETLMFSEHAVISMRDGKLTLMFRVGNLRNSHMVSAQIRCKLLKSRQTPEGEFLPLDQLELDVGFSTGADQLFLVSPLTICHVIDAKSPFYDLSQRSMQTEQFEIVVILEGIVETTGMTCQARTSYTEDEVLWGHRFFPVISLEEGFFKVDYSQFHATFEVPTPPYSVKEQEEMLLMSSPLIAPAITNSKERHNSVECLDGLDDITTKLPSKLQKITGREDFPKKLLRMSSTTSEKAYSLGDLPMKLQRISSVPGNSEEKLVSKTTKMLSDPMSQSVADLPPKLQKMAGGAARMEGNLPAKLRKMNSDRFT
T2 sequence (P48542 1-425): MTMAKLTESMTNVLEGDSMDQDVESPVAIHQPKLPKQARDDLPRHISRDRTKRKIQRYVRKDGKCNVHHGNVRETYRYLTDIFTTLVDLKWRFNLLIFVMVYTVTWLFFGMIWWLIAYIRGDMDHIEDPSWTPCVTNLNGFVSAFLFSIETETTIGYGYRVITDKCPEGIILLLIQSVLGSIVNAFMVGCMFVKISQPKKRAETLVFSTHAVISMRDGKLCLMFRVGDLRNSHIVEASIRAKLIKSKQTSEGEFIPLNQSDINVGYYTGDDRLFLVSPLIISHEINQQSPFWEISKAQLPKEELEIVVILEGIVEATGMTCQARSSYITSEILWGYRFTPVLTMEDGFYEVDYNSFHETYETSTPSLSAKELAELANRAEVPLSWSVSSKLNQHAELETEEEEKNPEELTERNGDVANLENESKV
Briefly: TEVC in Xenopus oocytes, Kir3.1/2. It counts as cell-based, human Kir3.1, mouse Kir3.2. Also on record: expressed in transfected cells. The settings on record: TEVC. The method, then: (§1) X. laevis oocytes were isolated and microinjected as previously described ([6]). Human Kir3.1, mouse Kir3.2, and human Kir3.4 DNA constructs were used for electrophysiology experiments. All cRNA constructs were injected in the amount of 2 ng per oocyte. Injected oocytes were incubated for 2 to 3 days at 18 °C to allow for expression. Whole-cell oocyte currents were then measured using a GeneClamp 500 amplifier (Axon Instruments). Microelectrodes had resistances of 0.5 to 1 megohm using a 3M KCl solution in 1.4% agarose. Oocytes were perfused with a low K^+ (LK) solution ND96 (2 mM KCl, 96 mM NaCl, 1 mM MgCl2, 1.8 mM CaCl2, 5 mM HEPES-Na) to establish a baseline for the recordings. Basal current was measured in a high potassium (HK) solution ND96K (96 mM KCl, 10 mM HEPES-K, 1 mM MgCl2, 1.8 mM CaCl2). To block the current, the oocyte chamber was perfused with 4 mM BaCl2 in ND96K. Only the Barium-sensitive current was used for statistical analysis. To measure the inhibitory activity of the channels, 1 μM BP-G1 in ND96K (HK) was used. Typically, oocytes were held at 0 mV (EK) and the current was monitored constantly using a ramp protocol with a command potential from −80 to +80 mV. Current amplitude was measured at the end of a 1 s sweep. All currents were analyzed when they reached steady state. Error bars in the figures represent SD (N > 4).

The target of experiment [5] is T3, Histamine H2 (Homo sapiens, UniProt P25021).
T3 construct: expressed in transfected cells; host or cells: CHO cells
The experiment in a line: Radioligand binding, [125I]APT. The settings on record: read-out: % Specific Binding at 10 µM.

Experiment [6] has as its target T4, Opioid Kappa (Rattus norvegicus, UniProt P34975).
T4 construct: expressed in transfected cells; host or cells: CHO cells
Briefly: Radioligand binding, [3H]U 69593. The settings on record: read-out: % Specific Binding at 10 µM.

For experiment [7], the target named is T5, 5-HT2A (Homo sapiens, UniProt P28223).
T5 construct: expressed in transfected cells; host or cells: HEK-293 cells
Briefly: Radioligand binding, [3H]ketanserin. As to conditions: read-out: % Specific Binding at 10 µM.

In experiment [8] the test system is GABA Cl- channel (GABA-gated). Briefly: Radioligand binding, [35S]TBPS. Also on record: species or system rat. As to conditions: 10 µM; listed as Benzopyran-G1 (SR).
Experiment [9] concerns Ca. Briefly: Radioligand binding. As to conditions: listed as Benzopyran-G1 (SR).
The target in experiment [10] is T6, Non-steroid nuclear receptors PPARγ (Homo sapiens, UniProt P37231).
T6 construct: purchased; host or cells: E. coli
Briefly: Radioligand binding, [3H]rosiglitazone. The settings on record: read-out: % Specific Binding at 10 µM.

For experiment [11], the target named is T7, Dopamine transporter (Homo sapiens, UniProt Q01959).
T7 construct: expressed in transfected cells; host or cells: CHO cells
The experiment in a line: Radioligand binding, [3H]BTCP. The settings on record: 10 µM; read-out: % Specific Binding at 10 µM.

Experiment [12] has as its target T8, Kir3.1/4 channel (Homo sapiens, UniProt P48544+P48549).
T8 sequence (P48549 1-501): T2 sequence (P48549 1-501)
T8 sequence (P48544 1-419): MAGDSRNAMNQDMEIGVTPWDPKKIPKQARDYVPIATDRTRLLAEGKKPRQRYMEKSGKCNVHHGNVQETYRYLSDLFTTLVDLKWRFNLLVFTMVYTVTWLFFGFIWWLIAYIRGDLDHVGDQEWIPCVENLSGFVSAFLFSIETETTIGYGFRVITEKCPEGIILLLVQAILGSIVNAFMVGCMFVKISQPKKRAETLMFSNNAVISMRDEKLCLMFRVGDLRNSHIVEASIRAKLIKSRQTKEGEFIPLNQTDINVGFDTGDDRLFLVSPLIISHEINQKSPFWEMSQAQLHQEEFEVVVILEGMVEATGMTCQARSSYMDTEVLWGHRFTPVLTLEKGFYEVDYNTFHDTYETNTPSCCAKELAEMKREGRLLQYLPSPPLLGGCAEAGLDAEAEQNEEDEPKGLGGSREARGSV
The experiment in a line: TEVC in Xenopus oocytes, Kir3.1/4. The experiment is classed as cell-based. Also on record: expressed in transfected cells; host or cells: Xenopus laevis oocytes (cRNA injection). The settings on record: 1 μM, TEVC. The method, then: as §1

T7 sequence (Q01959 whole entry): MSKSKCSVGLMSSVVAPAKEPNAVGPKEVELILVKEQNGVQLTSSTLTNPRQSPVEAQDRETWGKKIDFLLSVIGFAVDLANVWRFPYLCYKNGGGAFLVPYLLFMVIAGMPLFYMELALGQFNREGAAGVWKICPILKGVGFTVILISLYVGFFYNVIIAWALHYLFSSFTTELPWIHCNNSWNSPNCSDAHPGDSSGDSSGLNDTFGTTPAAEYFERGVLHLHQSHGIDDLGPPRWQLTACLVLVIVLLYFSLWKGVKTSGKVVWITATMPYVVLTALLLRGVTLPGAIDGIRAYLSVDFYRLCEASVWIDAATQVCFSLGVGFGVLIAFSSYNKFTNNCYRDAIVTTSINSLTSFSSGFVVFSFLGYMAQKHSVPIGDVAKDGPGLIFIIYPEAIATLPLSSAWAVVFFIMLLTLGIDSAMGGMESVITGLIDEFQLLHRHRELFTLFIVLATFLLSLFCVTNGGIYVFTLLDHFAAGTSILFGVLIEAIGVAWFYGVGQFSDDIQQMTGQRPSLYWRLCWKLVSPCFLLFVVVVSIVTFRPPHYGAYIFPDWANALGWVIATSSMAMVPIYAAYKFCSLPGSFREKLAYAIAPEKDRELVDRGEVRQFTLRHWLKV
T6 sequence (P37231 whole entry): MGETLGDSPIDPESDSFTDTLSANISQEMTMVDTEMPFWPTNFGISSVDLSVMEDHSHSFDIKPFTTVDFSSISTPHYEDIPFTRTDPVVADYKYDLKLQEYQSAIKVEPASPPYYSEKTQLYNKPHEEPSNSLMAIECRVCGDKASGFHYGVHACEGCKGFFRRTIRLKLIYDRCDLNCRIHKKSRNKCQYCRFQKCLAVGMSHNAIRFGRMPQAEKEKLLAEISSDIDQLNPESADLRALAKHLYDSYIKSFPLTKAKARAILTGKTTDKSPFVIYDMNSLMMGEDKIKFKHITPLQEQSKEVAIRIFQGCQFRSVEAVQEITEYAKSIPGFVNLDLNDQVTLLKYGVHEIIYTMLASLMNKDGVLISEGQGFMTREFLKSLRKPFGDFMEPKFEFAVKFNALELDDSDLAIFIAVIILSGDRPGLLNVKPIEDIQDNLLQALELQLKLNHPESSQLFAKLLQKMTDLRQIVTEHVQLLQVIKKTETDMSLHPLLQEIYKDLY
T1 sequence (P25103 whole entry): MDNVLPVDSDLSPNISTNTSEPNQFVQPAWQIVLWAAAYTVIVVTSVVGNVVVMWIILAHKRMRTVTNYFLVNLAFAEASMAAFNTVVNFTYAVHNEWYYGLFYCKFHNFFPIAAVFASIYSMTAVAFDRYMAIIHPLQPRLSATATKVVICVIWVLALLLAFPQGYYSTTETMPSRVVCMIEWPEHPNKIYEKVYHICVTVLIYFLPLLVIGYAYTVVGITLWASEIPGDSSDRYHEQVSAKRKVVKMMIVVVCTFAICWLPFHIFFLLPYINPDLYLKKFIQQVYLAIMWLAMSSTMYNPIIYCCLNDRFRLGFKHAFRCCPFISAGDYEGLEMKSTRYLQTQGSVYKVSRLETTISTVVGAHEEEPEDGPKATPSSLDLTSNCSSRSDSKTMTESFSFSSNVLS
T5 sequence (P28223 whole entry): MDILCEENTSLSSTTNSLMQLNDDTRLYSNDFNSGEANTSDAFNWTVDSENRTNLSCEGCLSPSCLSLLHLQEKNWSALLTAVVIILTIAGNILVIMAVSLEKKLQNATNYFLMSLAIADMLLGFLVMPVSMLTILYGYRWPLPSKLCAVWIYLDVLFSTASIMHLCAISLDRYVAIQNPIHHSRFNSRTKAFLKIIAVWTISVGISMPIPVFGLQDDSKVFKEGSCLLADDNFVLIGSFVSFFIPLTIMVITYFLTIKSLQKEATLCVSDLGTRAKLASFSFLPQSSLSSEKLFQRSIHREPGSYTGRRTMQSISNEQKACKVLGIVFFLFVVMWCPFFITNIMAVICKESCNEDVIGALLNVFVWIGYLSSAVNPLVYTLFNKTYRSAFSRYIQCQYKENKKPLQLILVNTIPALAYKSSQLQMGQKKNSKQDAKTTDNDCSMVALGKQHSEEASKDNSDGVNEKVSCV
T4 sequence (P34975 whole entry): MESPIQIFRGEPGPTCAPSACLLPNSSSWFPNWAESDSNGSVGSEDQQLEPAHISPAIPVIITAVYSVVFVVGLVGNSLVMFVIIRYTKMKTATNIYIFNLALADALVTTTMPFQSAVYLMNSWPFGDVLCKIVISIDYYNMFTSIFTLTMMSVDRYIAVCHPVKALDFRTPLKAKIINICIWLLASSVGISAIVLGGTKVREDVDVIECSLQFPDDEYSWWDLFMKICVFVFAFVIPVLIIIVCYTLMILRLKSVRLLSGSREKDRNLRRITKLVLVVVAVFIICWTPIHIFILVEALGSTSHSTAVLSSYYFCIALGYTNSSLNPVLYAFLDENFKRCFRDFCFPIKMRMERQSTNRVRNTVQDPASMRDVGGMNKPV
T3 sequence (P25021 whole entry): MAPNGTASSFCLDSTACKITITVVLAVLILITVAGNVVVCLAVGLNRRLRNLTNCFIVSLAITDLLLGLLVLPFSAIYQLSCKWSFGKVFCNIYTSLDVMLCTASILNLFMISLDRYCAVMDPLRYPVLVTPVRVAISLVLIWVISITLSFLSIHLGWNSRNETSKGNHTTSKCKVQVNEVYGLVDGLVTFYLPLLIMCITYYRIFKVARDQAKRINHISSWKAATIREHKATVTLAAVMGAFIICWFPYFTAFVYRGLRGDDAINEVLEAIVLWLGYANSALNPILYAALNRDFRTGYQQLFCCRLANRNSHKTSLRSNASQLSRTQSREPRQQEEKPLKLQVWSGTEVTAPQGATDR

In the case of `Cc1cc(CO)nc2cc3c(cc12)OC(C)(C)[C@@H](O)[C@@H]3NCCc1ccccc1` [BP-G1(SR), (3S,4R)-7-(hydroxymethyl)-2,2,9-trimethyl-4-(2-phenylethylamino)-3,4-dihydropyrano[2,3-g]quinolin-3-ol], the inhibition at 10 µM in experiment [1] was 64.2%; in [5], 83.6%; in experiment [6], 31.3%; in experiment [7], 46.4%; in experiment [10], 58.3%; in experiment [11] it was 44.6%. Moreover, the “RR interval 5 min after compound, given about 10 min after carbachol” value in [2] (40 μl of 240 μM via jugular vein, anesthetized mice, mean ± SD, N = 3) amounted to 551.6 ± 185 ms. In addition, the “heart rate recovery after carbachol” value in [2] (40 μl via jugular vein) is on record as “the heart rate did not recover to baseline”. For the same compound, the “% Specific Binding at 10 µM” value was 68.800% in experiment [3]; under 50% in [8]; 28.633% and < 50% in [9]. In addition, in experiment [4], the “inhibitory activity on Kir3.1/2 channel” value was “nominally inhibits; also recorded: unable to effectively inhibit”. Further, the “inhibitory activity on Kir3.1/4 channel” value in experiment [12] is listed as “nominally inhibits; also recorded: unable to effectively inhibit”.
